`*/C(C)=C(/*)[Si](C)(C)CC[Si](C)(C)C` (repeat unit) displayed a glass transition temperature of 200.00 °C. Under `*C/C=C/C[Si](*)(C)C` (repeat unit) stands -57.50 °C; under `*C/C=C/C[Si](*)(C)CCCOc1ccc(-c2ccccc2)cc1` (repeat unit), 10.00 °C. The compound `*C/C=C/C[Si](*)(C=C)C=C` (repeat unit) displayed a glass transition temperature of -65.00 °C. Under `*C/C=C/C[Si](*)(CCCOc1ccccc1)c1ccccc1` (repeat unit) stands -5.00 °C; under `*C/C=C/C[Si](*)(c1ccccc1)c1ccccc1` (repeat unit), 34.90 °C.

`*C1CCC(CC2CCC(N3C(=O)c4ccc(-c5ccc6c(c5)C(=O)N(*)C6=O)cc4C3=O)C(C)C2)CC1C` (repeat unit) returned a glass transition temperature of 260.00 °C. Under `*C1CCC(CC2CCC(N3C(=O)c4ccc(Oc5ccc6c(c5)C(=O)N(*)C6=O)cc4C3=O)C(C)C2)CC1C` (repeat unit) stands 250.00 °C; under `*CC(*)c1ccc2c(c1)OCO2` (repeat unit), 138.00 °C; under `*CC(*)c1ccc2ccccc2c1` (repeat unit), 146.50 °C.

Take `*CC(*)c1cccc(C)n1` (repeat unit): the glass transition temperature amounted to 92.00 °C. Turning to `*CC(*)c1cccc(N(c2ccc(C)cc2)c2ccc(C)cc2)c1` (repeat unit), the glass transition temperature was found to be 126.50 °C. The result for `*CC(*)c1cccc(O)c1` (repeat unit) reads 169.00 °C; that for `*CC(*)c1cccc2ccccc12` (repeat unit), 160.00 °C; that for `*CC(*)c1ccccc1C(=O)N(C)C` (repeat unit), 190.00 °C. The compound `*CC(*)c1ccccc1C(=O)OCC(C)C` (repeat unit) came in with a glass transition temperature of 127.00 °C. Under `*CC(*)c1ccccc1C(=O)OCCCC` (repeat unit) stands 66.00 °C. For the compound `*CC(*)c1ccccc1C(=O)OCCCCCC` (repeat unit), the glass transition temperature stood at 45.00 °C. On to `*CC(*)c1ccccc1COC(C)C` (repeat unit), for which the glass transition temperature worked out at 88.00 °C. The result for `*CC(*)c1ccccc1COCC` (repeat unit) reads 74.00 °C; that for `*CC(*)n1c2ccccc2c2cc3ccccc3cc21` (repeat unit), 253.00 °C; that for `*CC(*)n1cc2ccccc2n1` (repeat unit), 41.50 °C. On to `*CC(C)(C)C1C(=O)N(c2ccccc2)C(=O)C1*` (repeat unit), for which the glass transition temperature turned out to be 188.00 °C. Under `*CC(C)(C)C1C(=O)OC(=O)C1*` (repeat unit) stands 141.00 °C; under `*CC(C)(N=C=O)C1C(=O)OC(=O)C1*` (repeat unit), 100.00 °C. `*CC(OC(C)C)C1C(=O)OC(=O)C1*` (repeat unit) yielded a glass transition temperature of 142.00 °C. Turning to `*CC(OCC(C)C)C1(C)C(=O)OC(=O)C1(*)C` (repeat unit), the glass transition temperature is 219.00 °C. Take `*CC(OCC(C)C)C1C(=O)OC(=O)C1*` (repeat unit): the glass transition temperature is 145.00 °C. The result for `*CC(OCC)C1C(=O)OC(=O)C1*` (repeat unit) reads 146.00 °C. Under `*CC(c1ccccc1)C1C(=O)N(C(C)(C)C)C(=O)C1*` (repeat unit) stands 178.00 °C; under `*CC(c1ccccc1)C1C(=O)N(c2ccc(C(C)(C)C)cc2)C(=O)C1*` (repeat unit), 237.00 °C; under `*CC1(*)CCCCC1` (repeat unit), 100.00 °C.

In turn, `*CC1(*)OCC(c2ccccc2)O1` (repeat unit) returned a glass transition temperature of 75.00 °C. Turning to `*CC1CC2CC1C1CCC(Cn3c(=O)c4cc5c(=O)n(*)c(=O)c5cc4c3=O)C21` (repeat unit), the glass transition temperature is 265.00 °C.

For `*CC1CCC(CNC(=O)c2cc(C(=O)N*)cc(C(C)(C)C)c2)CC1` (repeat unit), the glass transition temperature was found to be 236.00 °C.

With `*CCC(*)(C)C` (repeat unit), the glass transition temperature was -12.00 °C. The result for `*CCC(*)(C)c1ccccc1` (repeat unit) reads 93.00 °C; that for `*CCC(*)=O` (repeat unit), 15.00 °C. Take `*CCC(C)(C)C(*)(C)C` (repeat unit): the glass transition temperature came out at 87.00 °C. The result for `*CCC(C)C(*)(C)C(=O)OC` (repeat unit) reads 45.00 °C; that for `*CCC(Cl)C(*)Cl` (repeat unit), 70.00 °C; that for `*CCC(F)(F)C(*)(F)F` (repeat unit), -108.00 °C. Under `*CCC(c1ccccc1)C(*)c1ccccc1` (repeat unit) stands 104.30 °C; under `*CCC1C(=O)N(CCC)C(=O)C1*` (repeat unit), 90.40 °C; under `*CCC1C(=O)N(CCCCCC)C(=O)C1*` (repeat unit), 41.50 °C. Under `*CCC1C(=O)N(CCCCCCCCCCCCCCCCCC)C(=O)C1*` (repeat unit) stands 67.10 °C; under `*CCC1C(=O)N(CCCCNC(=O)C(F)(F)C(F)(F)C(F)(F)C(F)(F)C(F)(F)C(F)(F)C(F)(F)F)C(=O)C1*` (repeat unit), 100.00 °C; under `*CCC1CC(*)C2C3CC(CC)C(C3)C12` (repeat unit), 138.00 °C. `*CCC1CC(*)C2C3CC(c4ccc(COC(C)CC)cc4)C(C3)C12` (repeat unit) returned a glass transition temperature of 139.00 °C. The result for `*CCC1CC(OC(=O)CCCCCCCCCCOc2ccc(-c3ccc(C#N)cc3)cc2)CC1*` (repeat unit) reads 24.00 °C. Under `*CCCC(Cl)C(*)Cl` (repeat unit) stands 42.00 °C; under `*CCCCCCCCCCCCCCCCOC(=O)CC/C=C/CCC(=O)O*` (repeat unit), -18.00 °C; under `*CCCCCCCCNC(=O)CCP(C)(=O)CCC(=O)N*` (repeat unit), 52.00 °C. For the compound `*CCCCCCCNC(=O)C(OC)C(OC)C(=O)N*` (repeat unit), the glass transition temperature came to 87.00 °C. As for `*CCCCCCCNC(=O)CCCCC(=O)N*` (repeat unit), the glass transition temperature stood at 55.00 °C. As for `*CCCCCCN(CC(F)(F)C(F)(F)C(F)(F)C(F)(F)C(F)(F)C(F)(F)C(F)(F)F)C(=O)CCCCC(=O)N(*)CC(F)(F)C(F)(F)C(F)(F)C(F)(F)C(F)(F)C(F)(F)C(F)(F)F` (repeat unit), the glass transition temperature came out at 119.40 °C.

Compound `*CCCCCCNC(=O)CCCCC(=O)NCC(=O)N*` (repeat unit) displayed a glass transition temperature of 53.40 °C. As for `*CCCCCCNC(=O)c1cc(NC(=O)C(C(C)CC)N2C(=O)c3ccccc3C2=O)cc(C(=O)N*)c1` (repeat unit), the glass transition temperature was 135.00 °C. Under `*CCCCCCOC(=O)CCC(=O)O*` (repeat unit) stands -50.00 °C; under `*CCCCNC(=O)C(OC)C(OC)C(=O)N*` (repeat unit), 100.00 °C; under `*CCCCNC(=O)CCCCC(=O)N*` (repeat unit), 58.00 °C.

For the compound `*CCOCCOC(=O)CCC(=O)O*` (repeat unit), the glass transition temperature is -38.20 °C. Under `*CCOCCOC(=O)CCCC(=O)O*` (repeat unit) stands -55.00 °C. As for `*Cc1ccc(CNC(=O)c2cc(C(=O)N*)cc(C(C)(C)C)c2)cc1` (repeat unit), the glass transition temperature is 204.00 °C. Under `*Cc1cccc(CNC(=O)CCC2(CCC(=O)N*)c3ccccc3-c3ccccc32)c1` (repeat unit) stands 150.00 °C; under `*NC1CCC(CC2CCC(NC(=O)CCCCC(*)=O)CC2)CC1` (repeat unit), 185.00 °C; under `*NNC(=O)c1ccc(C(*)=O)cc1OCC` (repeat unit), 240.00 °C. `*NNC(=O)c1ccc(C(*)=O)cc1OCCCCCCCC` (repeat unit) yielded a glass transition temperature of 203.50 °C. Under `*NNC(=O)c1ccc(C(*)=O)cc1OCCCCCCCCCC` (repeat unit) stands 193.00 °C. The result for `*Nc1ccc(NC(=O)CCCC(*)=O)cc1` (repeat unit) reads 135.00 °C. Compound `*OC(C)CCCC(C)C(*)=O` (repeat unit) had a glass transition temperature of -33.00 °C. The result for `*O[Si](C)(C)CCC/N=C1C=C(O)/C(=N\CCC[Si](*)(C)C)C=C\1O` (repeat unit) reads 70.34 °C. `*O[Si](C)(C)CCC/N=C1\c2ccccc2/C(=N\CCC[Si](*)(C)C)c2c(O)ccc(O)c21` (repeat unit): the glass transition temperature is 7.50 °C.

For `*O[Si](C)(C)O[Si](C)(C)OC(C)CCC(*)C` (repeat unit), the glass transition temperature was -83.00 °C. Under `*O[Si](C)(CCC(F)(F)F)CCC(F)(F)C(F)(F)C(F)(F)C(F)(F)C(F)(F)C(F)(F)C(F)(F)C(F)(F)CC[Si](*)(C)CCC(F)(F)F` (repeat unit) stands -28.00 °C; under `*O[Si](C)(CCC(F)(F)F)CCC(F)(F)CC[Si](*)(C)CCC(F)(F)F` (repeat unit), -38.00 °C.

With `*O[Si](C)(CCC(F)(F)F)O[Si](C)(CCC(F)(F)F)O[Si](C)(CCC(F)(F)F)CCC(F)(F)C(F)(F)C(F)(F)C(F)(F)C(F)(F)C(F)(F)CC[Si](*)(C)CCC(F)(F)F` (repeat unit), the glass transition temperature was -43.00 °C. Under `*Oc1ccc(C(C)(C)c2ccc(OC(=O)CC(C)CCC(*)=O)cc2)cc1` (repeat unit) stands 56.00 °C; under `*Oc1ccc(C2(c3ccc(OC(=O)CCCC(*)=O)cc3)c3ccccc3-c3ccccc32)cc1` (repeat unit), 207.00 °C; under `*Oc1cccc(OC(=O)CCC(*)=O)c1` (repeat unit), 38.20 °C.

The record behind these values is the PolyMetriX glass transition set.
